Converted amounts (≈) assume the structure as drawn. Read-outs that look alike come from different tables or passages of the source.
How the values were obtained:
[1] = system: strains of A. baumannii and one strain of Acinetobacter sp.; assay: MIC with sub-inhibitory concentrations (0.25x MIC) of polymyxin B, panel of Acinetobacter strains (Example 4); format: cell-based
A. baumannii ATCC 19606 = assay: MIC without and with sub-inhibitory polymyxin B (Example 4); format: cell-based, Acinetobacter baumannii; settings: for MIC without PB/MIC + PB: A. baumannii ATCC 19606
A. baumannii J2 [2] = assay: as above; format: cell-based, Acinetobacter baumannii; settings: for MIC without PB/MIC + PB: A. baumannii J2; for MIC: Acinetobacter baumannii
A. baumannii J2 [3] = assay: Preliminary MBC without and with sub-inhibitory polymyxin B (Example 4); format: cell-based, Acinetobacter baumannii; settings: Acinetobacter baumannii, preliminary MBC
[4] = system: Acinetobacter sp. (H064200250); assay: MIC without and with sub-inhibitory polymyxin B (Example 4); format: cell-based; settings: for MIC: Acinetobacter
A. baumannii A329 [5] = assay: as above; format: cell-based, Acinetobacter baumannii; settings: +0.06 μg/ml PB, 2nd experiment
A. baumannii A329 [6] = assay: Preliminary MBC without and with sub-inhibitory polymyxin B (Example 4); format: cell-based, Acinetobacter baumannii; settings: Acinetobacter baumannii, A329, A. baumannii A329, +0.06 μg/ml PB, 2nd experiment, read-out: MBC
A. baumannii A387 [7] = assay: MIC without and with sub-inhibitory polymyxin B (Example 4); format: cell-based, Acinetobacter baumannii; settings: for MIC without PB/MIC + PB: A. baumannii A387
A. baumannii A387 [8] = assay: Preliminary MBC without and with sub-inhibitory polymyxin B (Example 4); format: cell-based, Acinetobacter baumannii; settings: Acinetobacter baumannii
A. baumannii A390 [9] = assay: MIC without and with sub-inhibitory polymyxin B (Example 4); format: cell-based, Acinetobacter baumannii; settings: +0.06 μg/ml PB, 2nd experiment
A. baumannii A14 [10] = assay: Preliminary MBC without and with sub-inhibitory polymyxin B (Example 4); format: cell-based, Acinetobacter baumannii; settings: A. baumannii A14, +0.06 μg/ml PB, 2nd experiment
Summary of the method: (§1)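 Bactericidal endpoint scored visually on plates incubated at 37° C (18-20 hours): the lowest concentration where growth fell about 90% versus the positive control, generally leaving one colony or none.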

A. baumannii A390 [11] = assay: as above; format: cell-based, Acinetobacter baumannii; settings: Acinetobacter baumannii, A390, A. baumannii A390, +0.06 μg/ml PB, 2nd experiment, read-out: MBC
Summary of the method: as §1

A. baumannii A473 [12] = assay: as above; format: cell-based, Acinetobacter baumannii; settings: Acinetobacter baumannii, A473, A. baumannii A473, +0.06 μg/ml PB, 2nd experiment, read-out: MBC
Summary of the method: as §1

A. baumannii NCTC 13301 [13] = assay: as above; format: cell-based, Acinetobacter baumannii; settings: Acinetobacter baumannii
Summary of the method: as §1

A. baumannii A401 [14] = assay: MIC without and with sub-inhibitory polymyxin B (Example 4); format: cell-based, Acinetobacter baumannii; settings: for MIC: Acinetobacter baumannii
A. baumannii A401 [15] = assay: Preliminary MBC without and with sub-inhibitory polymyxin B (Example 4); format: cell-based, Acinetobacter baumannii; settings: Acinetobacter baumannii
A. baumannii A472 [16] = assay: MIC without and with sub-inhibitory polymyxin B (Example 4); format: cell-based, Acinetobacter baumannii; settings: for MIC: Acinetobacter baumannii
A. baumannii A472 [17] = assay: Preliminary MBC without and with sub-inhibitory polymyxin B (Example 4); format: cell-based, Acinetobacter baumannii; settings: Acinetobacter baumannii, preliminary MBC
A. baumannii A473 [18] = assay: MIC without and with sub-inhibitory polymyxin B (Example 4); format: cell-based, Acinetobacter baumannii; settings: A. baumannii A473; +0.06 μg/ml PB; 2nd experiment
A. baumannii A489 = assay: as above; format: cell-based, Acinetobacter baumannii; settings: for MIC without PB/MIC + PB: A. baumannii A489; for MIC: Acinetobacter baumannii
A. baumannii NCTC 13301 [19] = assay: as above; format: cell-based, Acinetobacter baumannii
A. baumannii NCTC 13301 [20] = assay: as above; format: cell-based, Acinetobacter baumannii; settings: +[…] PB, 2nd experiment
A. baumannii A14 [21] = assay: as above; format: cell-based, Acinetobacter baumannii; settings: 1st experiment
A. baumannii A14 [22] = assay: as above; format: cell-based, Acinetobacter baumannii; settings: 2nd experiment
[23] = ratio, PB 0.06 μg/ml, 1st experiment
[24] = A. baumannii A14, +0.06 μg/ml PB

## Cc1c(-c2ccc(CN)c(F)c2)ccn2c(=O)c(C(=O)O)cc(C3CC3)c12 [Compound 4, 8-(3-fluoro-4-aminomethyl-phenyl)-1-cyclopropyl-9-methyl-4-oxo-quinolizine-3-carboxylic acid]
[1]; 1st experiment
  Range ratios MIC without PB/MIC with PB Oct. 1, 2008 n = 8: 2-8
[1]; 1st experiment, […] polymyxin B, ATCC 19606, A329, A390 and A473 not taken
  MIC range with PB (0.25x MIC) Oct. 1, 2008 n = 8: 1 to 8 µg/mL
[1]; 2nd experiment
  Range ratios MIC without PB/MIC with PB Oct. 14, 2008 n = 11: 1-16
[1]; 2nd experiment, 0.06 μg/ml polymyxin B, all strains except the ATCC strain
  MIC range with PB (0.25x MIC) Oct. 14, 2008 n = 11: 0.5 to 8 µg/mL
A. baumannii ATCC 19606; +0.06 μg/ml PB, 2nd experiment
  MIC without PB/MIC + PB: ≥16
A. baumannii ATCC 19606; [23]
  MIC without PB/MIC + PB: 2
A. baumannii ATCC 19606; Acinetobacter baumannii, ATCC19606, read-out: MIC +0.06 μg/ml PB, A. baumannii ATCC 19606, +0.06 μg/ml polymyxin B, 1st experiment
  MIC: 0.125 µg/mL
A. baumannii J2 [2]; +[…] PB, 2nd experiment
  MIC without PB/MIC + PB: 128
A. baumannii J2 [2]; ratio, PB […], 1st experiment
  MIC without PB/MIC + PB: 4
A. baumannii J2 [2]; J2, A. baumannii J2, +[…] PB, 2nd experiment, read-out: MIC
  MIC: 0.06 µg/mL (≈ 0.164 µM)
A. baumannii J2 [2]; J2, read-out: MIC +[…] PB, A. baumannii J2, +[…] polymyxin B, 1st experiment
  MIC: 2 µg/mL (≈ 5.46 µM)
A. baumannii J2 [3]; J2, A. baumannii J2, +[…] PB, 2nd experiment, read-out: MBC
  MBC: 0.06 µg/mL (≈ 0.164 µM)
A. baumannii J2 [3]; J2, read-out: MBC +[…] PB, A. baumannii J2, +[…] polymyxin B, 1st experiment
  MBC: 1 µg/mL (≈ 2.73 µM)
[4]; Acinetobacter spp. H064200250 (OXA51), +[…] PB, 2nd experiment
  MIC without PB/MIC + PB: 64
[4]; Acinetobacter spp. H064200250, ratio, PB […], 1st experiment
  MIC without PB/MIC + PB: 4
[4]; Acinetobacter spp. H064200250 (OXA51), +[…] PB, 2nd experiment, read-out: MIC
  MIC: 0.5 µg/mL (≈ 1.36 µM)
[4]; read-out: MIC +[…] PB, Acinetobacter spp. H064200250, +[…] polymyxin B, 1st experiment
  MIC: 4 µg/mL (≈ 10.9 µM)
A. baumannii A329 [5]; A. baumannii A329
  MIC without PB/MIC + PB: 2
A. baumannii A329 [5]; Acinetobacter baumannii, A329, A. baumannii A329, read-out: MIC
  MIC: 8 µg/mL (≈ 21.8 µM)
A. baumannii A329 [6]
  MBC: 8 µg/mL (≈ 21.8 µM)
A. baumannii A387 [7]; +0.06 μg/ml PB, 2nd experiment
  MIC without PB/MIC + PB: 8
A. baumannii A387 [7]; [23]
  MIC without PB/MIC + PB: 2
A. baumannii A387 [7]; Acinetobacter baumannii, A387, read-out: MIC +0.06 μg/ml PB, A. baumannii A387, +0.06 μg/ml polymyxin B, 1st experiment
  MIC: 1 µg/mL
A. baumannii A387 [8]; A387, A. baumannii A387, +0.06 μg/ml PB, 2nd experiment, read-out: MBC
  MBC: 0.5 µg/mL (≈ 1.36 µM)
A. baumannii A387 [8]; A387, read-out: MBC +0.06 μg/ml PB, A. baumannii A387, +0.06 μg/ml polymyxin B, 1st experiment
  MBC: 1 µg/mL
A. baumannii A390 [9]; A. baumannii A390
  MIC without PB/MIC + PB: 64
A. baumannii A390 [9]; Acinetobacter baumannii, A390, A. baumannii A390, read-out: MIC
  MIC: 0.5 µg/mL (≈ 1.36 µM)
A. baumannii A14 [10]
  MBC: 8 µg/mL (≈ 21.8 µM)
A. baumannii A390 [11]
  MBC: 0.5 µg/mL (≈ 1.36 µM)
A. baumannii A473 [12]
  MBC: 0.25 µg/mL (≈ 0.682 µM)
A. baumannii NCTC 13301 [13]; NCTC13301, A. baumannii NCTC 13301, +[…] PB, preliminary MBC, 2nd experiment, read-out: MBC
  MBC: 0.25 µg/mL (≈ 0.682 µM)
A. baumannii NCTC 13301 [13]; NCTC13301, read-out: MBC +[…] PB
  MBC: 0.5 µg/mL (≈ 1.36 µM)
A. baumannii A401 [14]; A baumannii A 401, ratio, PB 0.06 μg/ml, 1st experiment
  MIC without PB/MIC + PB: 4
A. baumannii A401 [14]; A401, A baumannii A 401, +0.06 μg/ml PB, 2nd experiment, read-out: MIC
  MIC: 0.5 µg/mL (≈ 1.36 µM)
A. baumannii A401 [14]; A401, read-out: MIC +0.06 μg/ml PB, A baumannii A 401, +0.06 μg/ml polymyxin B, 1st experiment
  MIC: 4 µg/mL
A. baumannii A401 [15]; A401, A baumannii A 401, +0.06 μg/ml PB, 2nd experiment, read-out: MBC
  MBC: 0.5 µg/mL (≈ 1.36 µM)
A. baumannii A401 [15]; A401, read-out: MBC +0.06 μg/ml PB, A baumannii A 401, +0.06 μg/ml polymyxin B, 1st experiment
  MBC: 2 µg/mL
A. baumannii A472 [16]; A. baumannii A472, ratio, PB […], 1st experiment
  MIC without PB/MIC + PB: 4
A. baumannii A472 [16]; A472, A. baumannii A472, +[…] PB, 2nd experiment, read-out: MIC
  MIC: 0.125 µg/mL (≈ 0.341 µM)
A. baumannii A472 [16]; A472, read-out: MIC +[…] PB, A. baumannii A472, +[…] polymyxin B, 1st experiment
  MIC: 1 µg/mL (≈ 2.73 µM)
A. baumannii A472 [17]; A472, A. baumannii A472, +[…] PB, 2nd experiment, read-out: MBC
  MBC: 0.125 µg/mL (≈ 0.341 µM)
A. baumannii A472 [17]; A472, read-out: MBC +[…] PB, A. baumannii A472, +[…] polymyxin B, 1st experiment
  MBC: 1 µg/mL (≈ 2.73 µM)
A. baumannii A473 [18]
  MIC: 0.25 µg/mL (≈ 0.682 µM)
  MIC without PB/MIC + PB: 32
A. baumannii A489; +[…] PB, 2nd experiment
  MIC without PB/MIC + PB: ≥512
A. baumannii A489; ratio, PB […], 1st experiment
  MIC without PB/MIC + PB: 8
A. baumannii A489; A489, A. baumannii A489, +[…] PB, 2nd experiment, read-out: MIC
  MIC: ≤ 0.03 µg/mL
A. baumannii A489; A489, read-out: MIC +[…] PB, A. baumannii A489, +[…] polymyxin B, 1st experiment
  MIC: 1 µg/mL (≈ 2.73 µM)
A. baumannii NCTC 13301 [19]; A. baumannii NCTC 13301, ratio, PB […], 1st experiment
  MIC without PB/MIC + PB: 8
A. baumannii NCTC 13301 [19]; Acinetobacter baumannii, NCTC13301, read-out: MIC +[…] PB
  MIC: 1 µg/mL (≈ 2.73 µM)
A. baumannii NCTC 13301 [20]; A. baumannii NCTC 13301
  MIC without PB/MIC + PB: 128
A. baumannii NCTC 13301 [20]; Acinetobacter baumannii, NCTC13301, A. baumannii NCTC 13301, read-out: MIC
  MIC: 0.25 µg/mL (≈ 0.682 µM)
A. baumannii A14 [21]; +0.06 μg/ml polymyxin B
  MIC +0.06 μg/ml PB: 8 µg/mL
A. baumannii A14 [21]; ratio, PB 0.06 μg/ml
  MIC without PB/MIC + PB: 4
A. baumannii A14 [22]; [24]
  MIC: 2 µg/mL (≈ 5.46 µM)
  MIC without PB/MIC + PB: 16
A. baumannii A14 [22]; Acinetobacter baumannii, A14, A. baumannii A14, without PB, read-out: MIC
  MIC: 32 µg/mL (≈ 87.3 µM)
